Reference: patent US20220281876A1, “DEGRADATION OF BRUTON'S TYROSINE KINASE (BTK) BY CONJUGATION OF BTK INHIBITORS WITH E3 LIGASE LIGAND AND METHODS OF USE” (BEIGENE, LTD., priority 2019, published 2022)

Molecular target: T1, BTK (Homo sapiens, UniProt Q06187)
T1 construct: endogenous in cells; host or cells: Ramos cells
Assay: BTK cell degradation in Ramos cells (total BTK ELISA)
Assay type: cell-based
Details: 16 h incubation, FastScan total BTK ELISA
Procedure: Ramos cells are treated with compounds diluted in 0.1% DMSO, dilution is done according to the following protocol: (1) make 1000x stock solution in DMSO from 10 mM by 5-fold dilution, total 7 doses were included; (2) make 10x solution in cell culture medium by transferring 1 ul 1000x stock solution into 99 ul medium; (3) 11 ul of 10× solution is added to cells and incubate for 16 h.
Cells in 96 well plate are harvested by centrifugation (1200 rpm), and wash once with ice-cold PBS. Then, 100 ul 1×cell extraction buffer is added in each well. The cells are placed on a shaker for 20 min at 4° C.; 5 ul lysate is transferred to 45 ul of 1×cell extraction buffer in ELISA plate, and 50 ul of the antibody cocktail is added in each well; seal the plate and incubate 1 hour at room temperature on a plate shaker; medium is discarded from the plate, tap the plated on a paper towel, wash 3×200 ul ELISA wash buffer; add 100 ul of TMB to each well and incubate the plate in the dark for 15 min at room temperature on a shaker; add 100 ul of STOP solution to each well; read absorbance at 450 nm. The BTK ELISA assay was performed using FastScan total BTK ELISA kit (Cell Signaling Cat #36609).

T1 sequence (Q06187 whole entry): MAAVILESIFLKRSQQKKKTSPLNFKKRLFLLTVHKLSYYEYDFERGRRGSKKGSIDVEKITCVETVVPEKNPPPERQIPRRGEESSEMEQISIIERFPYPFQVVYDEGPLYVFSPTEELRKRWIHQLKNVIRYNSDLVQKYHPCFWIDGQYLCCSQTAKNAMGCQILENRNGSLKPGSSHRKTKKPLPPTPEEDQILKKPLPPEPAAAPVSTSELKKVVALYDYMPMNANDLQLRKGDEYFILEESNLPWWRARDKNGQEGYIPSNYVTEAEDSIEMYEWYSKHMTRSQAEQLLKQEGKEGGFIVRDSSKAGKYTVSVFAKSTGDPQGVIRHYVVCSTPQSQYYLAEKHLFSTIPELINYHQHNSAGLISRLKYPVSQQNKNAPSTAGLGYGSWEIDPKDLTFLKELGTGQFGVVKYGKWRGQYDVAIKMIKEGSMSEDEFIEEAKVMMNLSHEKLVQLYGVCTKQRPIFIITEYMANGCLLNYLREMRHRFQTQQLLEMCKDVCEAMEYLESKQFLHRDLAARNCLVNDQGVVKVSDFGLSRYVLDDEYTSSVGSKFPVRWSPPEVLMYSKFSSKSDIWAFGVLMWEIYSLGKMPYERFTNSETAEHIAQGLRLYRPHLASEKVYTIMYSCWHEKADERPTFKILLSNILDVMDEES

SMILES | DC50
NC(=O)c1c(-c2ccc(Oc3ccccc3)cc2)nn2c1NCC[C@H]2C1CCN(C(=O)CCc2ccc(N3CCN(c4ccc5c(c4)C(=O)N(C4CCC(=O)NC4=O)C5=O)CC3)cc2)CC1 (stereo partly drawn) [Example 40, (7S)-7-(1-(3-(4-(4-(2-(2,6-dioxopiperidin-3-yl)-1,3-dioxoisoindolin-5-yl)piperazin-1-yl)phenyl)propanoyl)piperidin-4-yl)-2-(4-phenoxyphenyl)-4,5,6,7-tetrahydropyrazolo[1,5-a]pyrimidine-3-carboxamide] | 74 nM
NC(=O)c1c(-c2ccc(Oc3ccccc3)cc2)nn2c1NCC[C@H]2C1CCN(C(=O)COCCOCCNC(=O)CCCN2CCN(c3ccc4c(c3)C(=O)N(C3CCC(=O)NC3=O)C4=O)CC2)CC1 (stereo partly drawn) [Example 42, (7S)-7-(1-(2-(2-(2-(4-(4-(2-(2,6-dioxopiperidin-3-yl)-1,3-dioxoisoindolin-5-yl)piperazin-1-yl)butanamido)ethoxy)ethoxy)acetyl)piperidin-4-yl)-2-(4-phenoxyphenyl)-4,5,6,7-tetrahydropyrazolo[1,5-a]pyrimidine-3-carboxamide] | 624 nM
NC(=O)c1c(-c2ccc(Oc3ccccc3)cc2)nn2c1NCC[C@H]2C1CCN(C2CCN(Cc3ccc(C(=O)NCCNc4cccc5c4C(=O)N(C4CCC(=O)NC4=O)C5=O)cc3)CC2)CC1 (stereo partly drawn) [Example 43, (7S)-7-(1′-(4-((2-((2-(2,6-dioxopiperidin-3-yl)-1,3-dioxoisoindolin-4-yl)amino)ethyl)carbamoyl)benzyl)-[1, 4′-bipiperidin]-4-yl)-2-(4-phenoxyphenyl)-4,5,6,7-tetrahydropyrazolo[1,5-a]pyrimidine-3-carboxamide] | > 10000 nM
NC(=O)c1c(-c2ccc(Oc3ccccc3)cc2)nn2c1NCC[C@H]2C1CCN(C(=O)CCCc2ccc(N3CCN(c4ccc5c(c4)C(=O)N(C4CCC(=O)NC4=O)C5=O)CC3)cc2)CC1 (stereo partly drawn) [Example 44, (7S)-7-(1-(4-(4-(4-(2-(2,6-dioxopiperidin-3-yl)-1,3-dioxoisoindolin-5-yl)piperazin-1-yl)phenyl)butanoyl)piperidin-4-yl)-2-(4-phenoxyphenyl)-4,5,6,7-tetrahydropyrazolo[1,5-a]pyrimidine-3-carboxamide] | > 10000 nM
NC(=O)c1c(-c2ccc(Oc3ccccc3)cc2)nn2c1NCC[C@H]2C1CCN(C(=O)CCN2CCN(c3ccc(CNC(=O)CNc4cccc5c4CN(C4CCC(=O)NC4=O)C5=O)cc3)CC2)CC1 (stereo partly drawn) [Example 45, (7S)-7-(1-(3-(4-(4-((2-((2-(2,6-dioxopiperidin-3-yl)-1-oxoisoindolin-4-yl)amino)acetamido)methyl)phenyl)piperazin-1-yl)propanoyl)piperidin-4-yl)-2-(4-phenoxyphenyl)-4,5,6,7-tetrahydropyrazolo[1,5-a]pyrimidine-3-carboxamide] | 382 nM
CN(C/C=C/C(=O)N1CCC([C@@H]2CCNc3c(C(N)=O)c(-c4ccc(Oc5ccccc5)cc4)nn32)CC1)CCCCCNc1cccc2c1CN(C1CCC(=O)NC1=O)C2=O (stereo partly drawn) [Example 46, (7S)-7-(1-((E)-4-((5-((2-(2,6-dioxopiperidin-3-yl)-1-oxoisoindolin-4-yl)amino)pentyl)(methyl)amino)but-2-enoyl)piperidin-4-yl)-2-(4-phenoxyphenyl)-4,5,6,7-tetrahydropyrazolo[1,5-a]pyrimidine-3-carboxamide] | 198 nM
CN(C/C=C/C(=O)N1CCC([C@@H]2CCNc3c(C(N)=O)c(-c4ccc(Oc5ccccc5)cc4)nn32)CC1)CCCCCCNc1cccc2c1CN(C1CCC(=O)NC1=O)C2=O (stereo partly drawn) [Example 47, (7S)-7-(1-((E)-4-((6-((2-(2,6-dioxopiperidin-3-yl)-1-oxoisoindolin-4-yl)amino)hexyl)(methyl)amino)but-2-enoyl)piperidin-4-yl)-2-(4-phenoxyphenyl)-4,5,6,7-tetrahydropyrazolo[1,5-a]pyrimidine-3-carboxamide] | 315 nM
CN(/C=C/C(=O)N1CCC([C@@H]2CCNc3c(C(N)=O)c(-c4ccc(Oc5ccccc5)cc4)nn32)CC1)CCNc1cccc2c1C(=O)N(C1CCC(=O)NC1=O)C2=O (stereo partly drawn) [Example 49, (7S)-7-(1-((E)-3-((2-((2-(2,6-dioxopiperidin-3-yl)-1,3-dioxoisoindolin-4-yl)amino)ethyl)(methyl)amino)acryloyl)piperidin-4-yl)-2-(4-phenoxyphenyl)-4,5,6,7-tetrahydropyrazolo[1,5-a]pyrimidine-3-carboxamide] | > 10000 nM
CN(C/C=C/C(=O)N1CCC([C@@H]2CCNc3c(C(N)=O)c(-c4ccc(Oc5ccccc5)cc4)nn32)CC1)CCCCCCN1C(=O)CCC(N2C(=O)c3cccc(N)c3C2=O)C1=O (stereo partly drawn) [Example 50, (7S)-7-(1-((E)-4-((6-(3-(4-amino-1,3-dioxoisoindolin-2-yl)-2,6-dioxopiperidin-1-yl)hexyl)(methyl)amino)but-2-enoyl)piperidin-4-yl)-2-(4-phenoxyphenyl)-4,5,6,7-tetrahydropyrazolo[1,5-a]pyrimidine-3-carboxamide] | > 10000 nM
CN(C/C=C/C(=O)N1CCC([C@@H]2CCNc3c(C(N)=O)c(-c4ccc(Oc5ccccc5)cc4)nn32)CC1)CCCCCCN1C(=O)CCC(N2Cc3c(N)cccc3C2=O)C1=O (stereo partly drawn) [Example 51, (7S)-7-(1-((E)-4-((6-(3-(4-amino-1-oxoisoindolin-2-yl)-2,6-dioxopiperidin-1-yl)hexyl)(methyl)amino)but-2-enoyl)piperidin-4-yl)-2-(4-phenoxyphenyl)-4,5,6,7-tetrahydropyrazolo[1,5-a]pyrimidine-3-carboxamide] | > 10000 nM
CN(C/C=C/C(=O)N1CCC([C@@H]2CCNc3c(C(N)=O)c(-c4ccc(Oc5ccccc5)cc4)nn32)CC1)CCOCCOCCOCCN1C(=O)CCC(N2Cc3c(N)cccc3C2=O)C1=O (stereo partly drawn) [Example 52, (7S)-7-(1-((E)-1-(3-(4-amino-1-oxoisoindolin-2-yl)-2,6-dioxopiperidin-1-yl)-12-methyl-3,6,9-trioxa-12-azahexadec-14-en-16-oyl)piperidin-4-yl)-2-(4-phenoxyphenyl)-4,5,6,7-tetrahydropyrazolo[1,5-a]pyrimidine-3-carboxamide] | 144 nM
CN(C/C=C/C(=O)N1CCC([C@@H]2CCNc3c(C(N)=O)c(-c4ccc(Oc5ccccc5)cc4)nn32)CC1)CCCN1C(=O)CCC(N2Cc3c(N)cccc3C2=O)C1=O (stereo partly drawn) [Example 54, (7S)-7-(1-((E)-4-((3-(3-(4-amino-1-oxoisoindolin-2-yl)-2,6-dioxopiperidin-1-yl)propyl)(methyl)amino)but-2-enoyl)piperidin-4-yl)-2-(4-phenoxyphenyl)-4,5,6,7-tetrahydropyrazolo[1,5-a]pyrimidine-3-carboxamide] | 428 nM
CN(C/C=C/C(=O)N1CCC([C@@H]2CCNc3c(C(N)=O)c(-c4ccc(Oc5ccccc5)cc4)nn32)CC1)CCOCCOCCN1C(=O)CCC(N2Cc3c(N)cccc3C2=O)C1=O (stereo partly drawn) [Example 55, (7S)-7-(1-((E)-4-((2-(2-(2-(3-(4-amino-1-oxoisoindolin-2-yl)-2,6-dioxopiperidin-1-yl)ethoxy)ethoxy)ethyl)(methyl)amino)but-2-enoyl)piperidin-4-yl)-2-(4-phenoxyphenyl)-4,5,6,7-tetrahydropyrazolo[1,5-a]pyrimidine-3-carboxamide] | 382 nM
NC(=O)c1c(-c2ccc(Oc3ccccc3)cc2)nn2c1NCC[C@H]2C1CCN(C(=O)CCN2CCN(c3ccc(CNC(=O)CCN4C(=O)CCC(N5Cc6c(N)cccc6C5=O)C4=O)cc3)CC2)CC1 (stereo partly drawn) [Example 56, (7S)-7-(1-(3-(4-(4-((3-(3-(4-amino-1-oxoisoindolin-2-yl)-2,6-dioxopiperidin-1-yl)propanamido)methyl)phenyl)piperazin-1-yl)propanoyl)piperidin-4-yl)-2-(4-phenoxyphenyl)-4,5,6,7-tetrahydropyrazolo[1,5-a]pyrimidine-3-carboxamide] | 2360 nM
NC(=O)c1c(-c2ccc(Oc3ccccc3)cc2)nn2c1NCC[C@H]2C1CCN(C(=O)CCc2ccc(NC(=O)CNc3ccc4c(c3)C(=O)N(C3CCC(=O)NC3=O)C4=O)cc2)CC1 (stereo partly drawn) [Example 57, (7S)-7-(1-(3-(4-(2-((2-(2,6-dioxopiperidin-3-yl)-1,3-dioxoisoindolin-5-yl)amino)acetamido)phenyl)propanoyl)piperidin-4-yl)-2-(4-phenoxyphenyl)-4,5,6,7-tetrahydropyrazolo[1,5-a] pyrimidine-3-carboxamide] | > 10000 nM
NC(=O)c1c(-c2ccc(Oc3ccccc3)cc2)nn2c1NCC[C@H]2C1CCN(C(=O)CCCc2ccc(NC(=O)CNc3ccc4c(c3)C(=O)N(C3CCC(=O)NC3=O)C4=O)cc2)CC1 (stereo partly drawn) [Example 58, (7S)-7-(1-(4-(4-(2-((2-(2,6-dioxopiperidin-3-yl)-1,3-dioxoisoindolin-5-yl)amino)acetamido)phenyl)butanoyl)piperidin-4-yl)-2-(4-phenoxyphenyl)-4,5,6,7-tetrahydropyrazolo[1,5-a] pyrimidine-3-carboxamide] | 28 nM
NC(=O)c1c(-c2ccc(Oc3ccccc3)cc2)nn2c1NCC[C@H]2C1CCN(C(=O)CCN2CCN(C(=O)CNc3ccc4c(c3)C(=O)N(C3CCC(=O)NC3=O)C4=O)CC2)CC1 (stereo partly drawn) [Example 63, (7S)-7-(1-(3-(4-((2-(2,6-dioxopiperidin-3-yl)-1,3-dioxoisoindolin-5-yl)glycyl)piperazin-1-yl)propanoyl)piperidin-4-yl)-2-(4-phenoxyphenyl)-4,5,6,7-tetrahydropyrazolo[1,5-a]pyrimidine-3-carboxamide] | 2.9 nM
